Laboratory results as given in patent US20230148450A9, “BICYCLIC HETEROARYL COMPOUNDS AND USES THEREOF” (Revolution Medicines, Inc., priority 2019, published 2023).
Like-named read-outs stand apart in the source and are kept apart here.

How the values were obtained:
[1] = biological target: T1, SOS1 catalytic domain (residues 564-1049) (Homo sapiens, UniProt Q07889); test: Binding affinity to SOS1 using Surface Plasmon Resonance (SPR); settings: avi-tagged SOS1 catalytic domain immobilized on sensor chip; read-out: SOS1 SPR Equilibrium Kd
T1 construct: SOS1 catalytic domain (residues 564-1049) immobilized on a sensor chip
T1 sequence (Q07889 564-1049): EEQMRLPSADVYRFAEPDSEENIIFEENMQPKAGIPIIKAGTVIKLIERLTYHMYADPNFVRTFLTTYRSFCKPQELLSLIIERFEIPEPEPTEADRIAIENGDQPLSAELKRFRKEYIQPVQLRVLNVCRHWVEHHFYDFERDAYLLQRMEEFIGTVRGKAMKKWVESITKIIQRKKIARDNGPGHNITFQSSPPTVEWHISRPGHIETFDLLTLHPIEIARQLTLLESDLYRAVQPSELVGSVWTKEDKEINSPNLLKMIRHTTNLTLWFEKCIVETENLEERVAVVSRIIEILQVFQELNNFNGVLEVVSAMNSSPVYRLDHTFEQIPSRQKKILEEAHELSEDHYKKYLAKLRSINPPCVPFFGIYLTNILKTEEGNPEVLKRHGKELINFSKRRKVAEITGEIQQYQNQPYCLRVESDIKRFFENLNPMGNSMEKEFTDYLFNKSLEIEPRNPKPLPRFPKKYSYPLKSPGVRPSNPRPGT
Source text: Potency Assay: Measurement of the Binding Affinity of Compounds of the Invention to SOS! using Surface Plasmon Resonance (SPR)
The purpose of the SPR assay was to measure the direct binding of compounds to SOS1 catalytic domain (residues 564-1049) immobilized on a sensor chip. Data was reported as equilibrium dissociation constant (Kd) values.
Using a GE Biacore 8K SPR instrument, avi-tagged SOS1 catalytic domain protein was immobilized to a level of approximately 6000 response units (RU) on a streptavidin-coated SPR sensor chip in assay buffer containing 0.01 M HEPES, 0.15 M NaCl and 0.05% v/v Surfactant P20. In assay buffer containing 2% DMSO, concentration series of test compounds were generated spanning 5 μM to 4.9 nM over ten 2-fold dilutions. For each test compound, a separate 0 μM sample was generated for use during subsequent double reference subtraction. Serially for each test compound, individual dilution samples were flowed over the immobilized SOS1 protein at a flow rate of 50 μL/minute to monitor the association with SOS1. Dissociation of bound test compound from the SOS1 protein was immediately monitored by flowing assay buffer over the sensor surface and monitoring the decrease in binding signal back to the baseline level seen in the absence of compound. This was repeated for all compound dilutions in each series. The binding level response for each test compound concentration was noted immediately prior to the end of the association phase, and a secondary plot generated showing binding response level versus test compound concentration generated for each compound dilution series.

[2] = tested on: cellular pERK in PC-9 cells (EGFR Ex19Del); test: Potency Assay: pERK; format: cell-based; settings: Homo sapiens, read-out: SOS1 pERK IC50
Source text: The purpose of this assay is to measure the ability of test compounds to inhibit SOS1 function in cells. SOS1 activates RAS proteins by catalyzing the conversion of […] to […] in response to receptor tyrosine kinase activation. Activation of RAS induces a sequence of cellular signaling events that results in increased phosphorylation of ERK at […] (pERK). The procedure described below measures the level of cellular pERK in response to test compounds in PC-9 cells (EGFR Ex[…]). PC-9 cells were grown and maintained using media and procedures recommended by the ATCC. On the day prior to compound addition, cells were plated in 384-well cell culture plates (40 μL/well) and grown overnight in a 37° C., 5% CO2 incubator. Test compounds were prepared in 10, 3-fold dilutions in DMSO, with a top concentration of 10 mM. On the day of the assay, 40 nL of test compound was added to each well of cell culture plate using an Echo550 liquid handler (LabCyte). Concentrations of test compound were tested in duplicate with highest test concentration being 10 μM. After compound addition, cells were incubated for 1 hour at 37° C., 5% CO2. Following incubation, culture medium was removed and cells were washed once with phosphate buffered saline. Cellular pERK level was determined using the AlphaLISA SureFire Ultra p-ERK1/2 Assay Kit (PerkinElmer). Cells were lysed in 25 μL lysis buffer, with shaking at 600 RPM at room temperature for 15 minutes. Lysate (10 μL) was transferred to a 384-well Opti-plate (PerkinElmer) and 5 μL acceptor mix was added. The plate was centrifuged at 1000 RPM for 1 minute, and incubated in the dark for 2 hours. Following this incubation, 5 μL of donor mix was added, the plate was sealed and centrifuged at 1000 RPM for 1 minute, and the mixture was incubated for 2 hours at room temperature. Signal was read on an Envision plate reader (PerkinElmer) using standard AlphaLISA settings. Analysis of raw data was carried out in Excel (Microsoft) and Prism (GraphPad). Signal was plotted vs. the decadal logarithm of compound concentration, and IC50 was determined by fitting a 4-parameter sigmoidal concentration response model.

[3] = biological target: T2, SOS1 nucleotide exchange of KRAS (catalytic domain of SOS1, residues 564-1049; wild-type KRAS) (Homo sapiens, UniProt Q07889); test: Mode of Action Assay: Inhibition of SOS1 Nucleotide Exchange Activity (TR-FRET); format: biochemical; settings: TR-FRET signal
T2 construct: tagless catalytic domain of SOS1 (residues 564-1049)
T2 sequence (Q07889 564-1049): T1 sequence (Q07889 564-1049)
Experimental: The purpose of this assay was to characterize the inhibitory activity of compounds on SOS1 nucleotide exchange of KRAS. Data was reported as IC50 values based on the TR-FRET signal.
Note—the following protocol describes a procedure for monitoring the inhibition of SOS1 nucleotide exchange activity of wild-type KRAS in response to a compound of the invention. Other KRAS mutants and RAS isoforms maybe employed.
In assay buffer containing 20 mM HEPES, pH 7.5, 150 mM NaCl, 5 mM MgCl2, 0.05% Tween-20, 0.1% BSA, 1 mM DTT, concentration series of test compounds were generated spanning 100 μM to 1.7 nM over eleven 3-fold serial dilutions in a 384-well assay plate at a volume of 20 μL. The purified tagless catalytic domain of SOS1 (residues 564-1049) was first diluted in assay buffer at a concentration of 100 nM, and then 20 μL of the SOS1 containing solution was directly dispensed into compound plates. The SOS1/compound mixture was incubated at room temperature with constant mixing on an orbital shaker for 20 minutes to allow the reaction to reach equilibrium. A KRAS mixture was prepared by diluting 66.7 nM avi-tagged KRAS (residue 1-169), 3.33 nM Streptavidin-Tb and 333 nM EDA-GTP-DY-647P1 in assay buffer. This mixture was prepared immediately before addition to the SOS1/compound mixture to prevent intrinsic nucleotide exchange. Then 5 μL of the pre-incubated SOS1/compound mixture and 7.5 μL of the KRAS mixture were added sequentially in a 384-well low volume black round bottom plate and incubated at room temperature with constant shaking for 30 minutes. Time-resolved fluorescence was measured on a PerkinElmer Envision plate reader. DMSO and 10 μM of compound (i) were used as negative and positive controls, respectively.
Three replicates were performed for each compound. Data were normalized by the following: (Positive control—Sample signal)/(Positive control—negative control)*100. The data were fit using a four-parameter logistic fit.

[4] = PC-9 cells (EGFR Ex19Del), 1 hour incubation, AlphaLISA p-ERK1/2

| Compound | Kd [1] [nM] | IC50 [2, 4] [nM] | IC50 [3] [nM] | IC50 ([2]; PC-9, 1 h) [nM] |
| --- | --- | --- | --- | --- |
| CNCc1cc2c(N[C@H](C)c3cc(N)cc(C(F)(F)F)c3)nc(C)nn2c1 [Example 28, N-[(1R)-1-[3-amino-5-(trifluoromethyl)phenyl]ethyl]-2-methyl-6-(methylaminomethyl)pyrrolo[2,1-f][1,2,4]triazin-4-amine] | > 400 | < 1000 |  |  |
| C[C@@H](Nc1nc(Cl)cn2cc(C(=O)N3CCOCC3)nc12)c1cc(N)cc(C(F)(F)F)c1 [Example 29, [8-[[(1R)-1-[3-amino-5-(trifluoromethyl)phenyl]ethyl]amino]-6-chloro-imidazo[1,2-a]pyrazin-2-yl]-morpholino-methanone] | > 400 | > 1000 | > 1000 |  |
| COc1cc2c(N[C@H](C)c3cc(N)cc(C(F)(F)F)c3)nc(C)nn2c1 [Example 30, N-[(1R)-1-[3-amino-5-(trifluoromethyl)phenyl]ethyl]-6-methoxy-2-methyl-pyrrolo[2,1-f]-[1,2,4]triazin-4-amine] | > 400 | > 1000 |  |  |
| C[C@@H](Nc1cc(Cl)nc2nc(C(=O)N3CCOCC3)cn12)c1cc(N)cc(C(F)(F)F)c1 [Example 48, [5-[[(1R)-1-[3-amino-5-(trifluoromethyl)phenyl]ethyl]amino]-7-chloro-imidazo[1,2-a]pyrimidin-2-yl]-morpholino-methanone] | > 400 |  |  | < 1000 |
| C[C@@H](Nc1ncnc2cc(C3=CCNCC3)sc12)c1cc(N)cc(C(F)(F)F)c1 [Example 49, N-[(1R)-1-[3-amino-5-(trifluoromethyl)phenyl]ethyl]-6-(1,2,3,6-tetrahydropyridin-4-yl)thieno[3,2-d]pyrimidin-4-amine] |  | > 1000 | > 1000 |  |
| C[C@@H](Nc1nccc2sc(C3=CCNCC3)cc12)c1cc(N)cc(C(F)(F)F)c1 [Example 56, N-[(1R)-1-[3-amino-5-(trifluoromethyl)phenyl]ethyl]-2-(1,2,3,6-tetrahydropyridin-4-yl)thieno[3,2-c]pyridin-4-amine] |  | > 1000 | > 1000 |  |
| Cc1cn2nc(C(=O)N3CCN(C)CC3)cc2c(N[C@H](C)c2cccc(C(F)(F)F)c2)n1 [Example 61] |  | > 1000 | > 1000 |  |
| Cc1nc(N[C@H](C)c2cc(N)cc(C(F)(F)F)c2)c2cc([C@]3(O)CC[C@H](C(=O)N(C)C)CC3)cn2n1 [Example 66, 4-[4-[[(1R)-1-[3-amino-5-(trifluoromethyl)phenyl]ethyl]amino]-2-methyl-pyrrolo[2,1-f][1,2,4]triazin-6-yl]-4-hydroxy-N,N-dimethylcyclohexanecarboxamide] | ≤ 400 | > 1000 |  |  |
| C[C@@H](Nc1nc(Cl)nn2cc(C(=O)N3CCOCC3)cc12)c1cc(N)cc(C(F)(F)F)c1 [Example 68] |  | < 1000 |  |  |
| Cc1cn2nc(C(=O)N3CC4CCC(C3)N4C)cc2c(N[C@H](C)c2cc(N)cc(C(F)(F)F)c2)n1 [Example 78] |  | < 1000 | < 1000 |  |
| C[C@@H](Nc1nc(Cl)nn2cc(C(=O)N3CCN(C)CC3)cc12)c1cc(N)cc(C(F)(F)F)c1 [Example 94, N-[(1R)-1-[3-amino-5-(trifluoromethyl)-phenyl]ethyl]-2-chloro-6-(4-methylpiperazine-1-carbonyl)pyrrolo[2,1-f][1,2,4]triazin-4-amine] |  | < 1000 | < 1000 |  |
| C[C@@H](Nc1nc(Cl)nn2cc(C(=O)N3CCN(C)CC3)cc12)c1cccc(C(F)(F)F)c1 [Example 95] |  | > 1000 | > 1000 |  |
| C[C@@H](Nc1nc(Cl)nn2cc(C(=O)N3CC4(COC4)C3)cc12)c1cccc(C(F)(F)F)c1 [Example 96] |  | < 1000 | > 1000 |  |
| C[C@@H](Nc1nc(Cl)nn2cc(C(=O)N3CCN(C)CC3)cc12)c1cccc(C(F)F)c1F [Example 98] |  | < 1000 | < 1000 |  |
| C[C@@H](Nc1nc(Cl)cn2cc(C(=O)N3CCOCC3)cc12)c1cc(N)cc(C(F)(F)F)c1 [Example 102, N-[(1R)-1-[3-amino-5-(trifluoromethyl)phenyl]ethyl]-3-chloro-7-(morpholine-4-carbonyl)pyrrolo [1,2-a]pyrazin-1-amine] |  | > 1000 | > 1000 |  |
